Reference: patent US20160000750A1, “COMBINATION OF EGCG OR METHYLATED EGCG AND A PDE INHIBITOR” (KYUSHU UNIVERSITY, NATIONAL UNIVERSITY CORPORATION, priority 2010, published 2016)

Tested on: TLR 4
Assay: TLR4 expression in RAW 264.7 by Western blotting
Assay type: cell-based, mouse
Settings: vardenafil 5 μM, EGCG 10 μM added after 3 hours, 24 hours, untreated = 100
Procedure: A mouse macrophage cell line, RAW 264.7, was seeded in a 5-mL dish at 1×10^5 cells/mL and was pre-cultured in a DMEM medium supplemented with 1% FCS for 24 hours. Subsequently, vardenafil was added thereto at a concentration of 5 μM. After 3 hours, EGCG was added thereto at a concentration of 0 μM or 10 μM. After 24 hours, the cells were collected, and the expressions of Toll-like receptor (TLR) 2 and TLR 4 were measured by Western blotting.

Substance: (−)-epigallocatechin-3-O-gallate [EGCG]
- TLR4 expression level(%): 57%
